Reference: patent US20190262323A1, “COMPOSITIONS AND METHODS FOR TREATING NEURODEGENERATIVE DISORDERS” (GEORGETOWN UNIVERSITY, priority 2016, published 2019)

Legend:
cytokines and chemokines = assay: MILLIPLEX Mouse Cytokine/Chemokine Magnetic Bead Panel; assay type: in vivo, transgenic APP mice; details: 2.5 mg/kg or 1.25 mg/kg
Method: (§1) Transgenic mice harboring the Swedish, Dutch, and Iowa mutation for human amyloid beta-precursor protein were treated with intraperitoneal (IP) injections of 10 mg/kg, 5 mg/kg, 2.5 mg/kg, 1.25 mg/kg of LCB 03-0110 or 30 μL of dimethylsulfoxide (DMSO) every day for 1 week. LCB 03-0110 is a potent inhibitor of discoidin domain receptor 2 (DDR2) family tyrosine kinases. All animal experiments were conducted in full compliance with the recommendations of Georgetown University Animal Care and Use Committee (GUAUC). Fifteen mice were used for brain and blood extractions, and fifteen mice were used for drug treatments. Four transgenic APP mice were treated with DMSO, four transgenic APP mice were treated with 10 mg/kg of LCB 03-0110, four transgenic APP mice were treated with 5 mg/kg of LCB 03-0110, four transgenic APP mice were treated with 2.5 mg/kg of LCB 03-0110, and three transgenic APP mice were treated with 1.25 mg/kg of LCB 03-0110. Seven transgenic APP mice were treated with DMSO, and 7 transgenic APP mice were treated with 2.5 mg/kg of LCB.
(§2) MILLIPLEX®: Cytokines and chemokines were measured in serum and brain with the Mouse Cytokine/Chemokine Magnetic Bead Panel (Cat MCYTOMAG-70K, EMD Millipore). Human amyloid beta and total tau was measured in brain using the Human Amyloid Beta and Tau Panel (Cat HNABTMAG-68K, EMD Millipore). AKT/mTOR signaling cascade phosphoproteins were measured using the Akt/mTOR Phosphoprotein Magnetic Bread 11-Plex Kit (Cat 48-611MAG, EMD Millipore). Assays were performed according to the manufacturer's protocols.

APP mice = assay: Morris water maze; assay type: in vivo; details: 2.5 mg/kg for three weeks; by day three of training; average of three trials
Method: APP mice treated with either DMSO or 2.5 mg/kg LCB-03-0110 for 3 weeks were trained three times a day to find a submerged platform using visuospatial cues inside the apparatus. […] The mouse was allowed up to 60 seconds to find the platform, after which it would be removed from the apparatus after 5 seconds on the platform. If the animal was unable to find the platform, it was placed on the platform for 20 seconds. […] Data are shown as an average of three trials.

[1] = Pharmacokinetic analysis of brain and serum by mass spectrometry; assay type: in vivo, C57BL/6 mice
Method: C57BL/6 mice received a single IP dose of 1.25, 2.5, 5, or 10 mg/kg LCB, and brain and serum were collected at 2, 4, 6, or 8 hours (n=3 per dose and time point). Animals injected with vehicle (DMSO) were used for background subtraction. Drug levels were determined at the Georgetown University Proteomics and Metabolomics Shared Resources (PMSR). Stock solution for LCB-03110 [(approximately 1 mg/mL each) was prepared in methanol/dichloromethane (50:50). The serial dilutions for each of the standards were produced for the study separately in methanol/HPLC grade water (50:50). Preparation of the calibration curve standards and quality samples (QC) was performed by mixing the stock solutions in blank samples. The final calibration concentration for LCB-03110 ranged from 0.1 ng/mL to 100 ng/mL. The QC concentrations were 30 ng/mL, 3 ng/mL and 0.3 ng/mL, respectively. Serum and brain samples were stored at −80° C. and then thawed to room temperature prior to preparation. The thawed serum samples (20 μL) were transfused to a tube containing 100 μL of water. The 500 μL extraction solvent and acetonitrile/methanol (50:50) was added to the sample. The mixture was vortexed and incubated on ice for 20 minutes to accelerate protein precipitation. After incubation, the samples were vortexed again and centrifuged at 13,000 rpm for 20 minutes at 4° C. The supernatant was then collected and transferred to a new tube, was dried using speed vac, and reconstituted in 200 μL of methanol/water (50:50). The mixture was spun again at 13,000 rpm for 20 minutes at 4° C. The supernatant was then collected into a mass spec sample tube cap and run in the mass spectrometer. For brain, a small section of the thawed brain sample from each animal was transferred to a flat bottom tube. 200 μL of methanol/water (90:10) was added, and the tissue was homogenized. Acetonitrile was then added to the mixture facilitating protein precipitation. The mixture was then incubated on ice for 10 minutes. After incubation, the samples were vortexed and centrifuged at 13,000 rpm for 20 minutes at 4° C. The supernatant was then collected and transferred to a new tube, dried using speed vac, and reconstituted in 200 μL of methanol/water (50:50). The mixture was centrifuged at 13,000 rpm for 20 minutes at 4° C. The supernatant was collected into a mass spec sample tube cap and run in the mass spectrometer. The samples were resolved on an Acquity UPLC BEH C18 […], 2.1×50 mm column online with a triple quadrupole mass spectrometer (Xevo-TQ-S, Waters Corporation, USA) operating in the multiple reaction monitoring (MRM) mode. The sample cone voltage and collision energies were optimized for both analytes to obtain maximum ion intensity for parent and daughter ions using “Intelli Start” feature of MassLynx software (Waters Corporation, USA). The instrument parameters were optimized to gain maximum specificity and sensitivity of ionization for the parent [m/z=438.25] and daughter ions [m/z=357.33]. Signal intensities from all MRM Q1/Q3 ion pairs for analytes were ranked to ensure selection of the most intense precursor and fragment ion pair for MRM-based quantitation. […] Analysis was performed with a six to eight-point calibration curve, the sample queue was randomized and solvent blanks were injected to assess sample carryover. MRM data were processed using TargetLynx 4.1. The relative quantification values of analytes were determined by calculating the ratio of peak areas of transitions of samples normalized to the peak area of the internal standard.

human amyloid beta = assay: MILLIPLEX Human Amyloid Beta and Tau Panel, soluble and insoluble brain fractions; assay type: in vivo, transgenic APP mice; details: 2.5 mg/kg daily for 3 weeks
Method: as §1, with “Transgenic mice harboring the Swedish, Dutch, and Iowa mutation for human amyloid beta-precursor protein were treated with intraperitoneal (IP) injections of 10 mg/kg, 5 mg/kg, 2.5 mg/kg, 1.25 mg/kg of LCB 03-0110 or 30 μL of dimethylsulfoxide (DMSO) every day for 1 week.” left out
(§3) Animals were deeply anesthetized with a mixture of Xylazine and Ketamine (1:8). Whole blood (500 μl) was collected via cardiac puncture and centrifuged at 2000×g to precipitate blood cells. The serum was collected for mass spectrometric analysis. To wash out the remaining blood from vessels and reduce contamination, animals were perfused with 25 ml of 1X phosphate buffered saline (PBS) for 5 min and the brains were collected. A hemisphere was frozen and stored at −80° C. for mass spectrometry studies and the other hemisphere was immediately homogenized in 2.0 ml lysis buffer (containing protease and phosphatase inhibitors) and labeled as a soluble protein fraction.
After removing the soluble supernatant, the tissue pellet was washed with 1×STEN buffer. […]
as §2, with “Assays were performed according to the manufacturer's protocols.” left out

[2] = test system: Beclin, Atg7, Atg12, LC3-I, LC3-II; assay: Western blot of soluble brain fractions of treated APP mice: autophagy markers; assay type: in vivo, transgenic APP mice; details: 1.25 or 2.5 mg/kg
Method: as §1
Brain tissues from transgenic APP mice treated with LCB 03-0110 at 10 mg/kg, 5 mg/kg, 2.5 mg/kg, and 1.25 mg/kg were homogenized in 1×STEN buffer, centrifuged at 10,000×g for 20 min at 4° C., and the supernatants containing the soluble fraction were collected. […]

[3] = test system: APP/Aβ, Aβ42, p-tau (AT180); assay: Western blot of soluble brain fractions of treated APP mice: amyloid and p-tau; assay type: in vivo, transgenic APP mice
Method: as §1
Brain tissues from transgenic APP mice treated with LCB 03-0110 at 10 mg/kg, 5 mg/kg, 2.5 mg/kg, and 1.25 mg/kg were homogenized in 1×STEN buffer, centrifuged at 10,000×g for 20 min at 4° C., and the supernatants containing the soluble fraction were collected. Soluble fractions were probed with mouse monoclonal anti-6E10 (1:1000), rabbit polyclonal anti-Ab42 (1:1000), mouse monoclonal anti-AT180 (1:1000), rabbit polyclonal anti-Beclin-1 (1:1000), rabbit polyclonal anti-Atg7 (1:1000), rabbit polyclonal anti-Atg12 (1:1000), rabbit polyclonal anti-LC3B (1:1000) and rabbit polyclonal anti-actin (1:1000).

[4] = test system: beta-amyloid, synuclein and Tau; assay: LCB-03-0110 tested in cell culture: levels of misfolded proteins; assay type: cell-based; details: low doses (0.1-3 nM)
Method: shRNAs were designed to specifically knock down DDR1 and DDR2 receptors, and study their effects on clearance of misfolded protein accumulation in neurodegeneration. […] These shRNAs were then injected into animal models in vivo. […] A known DDR inhibitor, LCB-03-0110, was tested in cell culture. Low doses (0.1-3 nM) of LCB-03-0110 reduced the levels of beta-amyloid, synuclein and Tau in cell culture.

Tau [pS396] = assay: Human Tau [pS396] solid phase sandwich ELISA on brain tissue homogenates from treated transgenic APP mice; assay type: in vivo
Method: as §1, §3
Human Tau [pS396] solid phase sandwich ELISA was performed on brain tissue homogenates from transgenic APP mice treated with LCB 03-0110 at 10 mg/kg, 5 mg/kg, 2.5 mg/kg, and 1.25 mg/kg. A monoclonal Tau capture antibody was coated onto micro-wells. 50 μl of soluble lysate was added to each well, allowing the Tau [pS396] antigen to bind to the immobilized capture antibody, and incubated for two hours at room temperature. After the two hour incubation, samples were washed and incubated with 100 μl of rabbit monoclonal tau [pS396] detection antibody and incubated for one hour at room temperature. Following extensive washing, a 100 μl of horseradish peroxidase labeled anti-rabbit IgG was added to each well and incubated for thirty minutes at room temperature. Samples were washed to remove all unbound enzyme. […] The magnitude of the absorbance for this developed color was proportional to the quantity of Tau […] proteins in the brain tissue homogenates. […] All statistics were performed using ANOVA with Tukey multiple comparison post-test and data were expressed as Mean±SD.

phosphorylated mTOR = assay: MILLIPLEX Akt/mTOR phosphoprotein analysis; assay type: in vivo, transgenic APP mice; details: mean fluorescent intensity; 1.25 or 2.5 mg/kg
Method: as §1, with “Seven transgenic APP mice were treated with DMSO, and 7 transgenic APP mice were treated with 2.5 mg/kg of LCB.” left out
as §2, with “Assays were performed according to the manufacturer's protocols.” left out

[5] = brain response values (Area/IS Area), single IP dose

SMILES: Oc1cccc(Nc2ccnc3cc(-c4cccc(CN5CCOCC5)c4)sc23)c1 [LCB 03-0110, 3-(2-(3-(morpholinomethyl)phenyl)thieno[3,2-b]pyridine-7-ylamino)phenol]
- RANTES levels (cytokines and chemokines): does not alter
- VEGF-A levels (cytokines and chemokines): reduces VEGF-A to control levels
- brain inflammation (cytokines and chemokines): reduced
- granulocyte colony-stimulating factor (G-CSF) (cytokines and chemokines): reductions
- granulocyte-macrophage colony-stimulating factor (GM-CSF) (cytokines and chemokines): reductions
- macrophage colony-stimulating factor (M-CSF) (cytokines and chemokines): reductions
- macrophage inflammatory factor 1 alpha (MIP-1α) (cytokines and chemokines): reductions
- macrophage inflammatory factor 1 beta (MIP-1β) (cytokines and chemokines): reductions
- macrophage inflammatory protein 1 (MIP-1) (cytokines and chemokines): reductions
- macrophage inflammatory protein 2 (MIP-2) (cytokines and chemokines): reductions
- reduction in the average time to find a submerged platform (APP mice): 30%
- Tmax of the plasma:brain ratio ([1]; 2.5 mg/kg): about 2 hours
- plasma:brain ratio, comparison of doses ([1]; 2.5 mg/kg, among 10, 5, 2.5 and 1.25 mg/kg): highest plasma:brain ratio
- drug concentration in the brain, comparison of doses ([1]; 10 mg/kg, among 10, 5, 2.5 and 1.25 mg/kg): highest drug concentration in the brain
- time at which washed out completely from the brain [1, 5]: about 4 hours
- time of peak in the brain [1, 5]: about 1 hour
- blood brain barrier penetration ([1]; single IP dose 1.25, 2.5, 5 or 10 mg/kg): penetrates the blood brain barrier
- soluble human Aβ40 levels (human amyloid beta; brain): significantly reduced
- soluble human Aβ42 levels (human amyloid beta; brain): significantly reduced
- insoluble human Aβ42 levels (human amyloid beta; brains of APP mice): significantly reduced
- autophagy and autophagosomes (Beclin, Atg7, Atg12, LC3-I, LC3-II Western blot) [2]: stimulates autophagy and clears autophagosomes
- level of LC3-II/LC3-I, densitometry analysis of LC3-II levels ([2]; n=5): significantly reduces
- levels of p-tau (AT180) (Western blot) ([3]; 1.25 or 2.5 mg/kg daily, after one week): reduced
- levels of APP/Aβ (Western blot) ([3]; 1.25 or 2.5 mg/kg daily, after one week, actin loading control): reduced
- levels of amyloid, densitometry analysis ([3]; n=5, 3 mutant APP mice, about 2.5 mg/kg or less): significantly reduced
- beta-amyloid (Aβ42) levels (Western blot) ([3]; soluble brain fraction, 1.25 or 2.5 mg/kg daily, one week): effective in reducing
- levels of Tau [4]: reduced
- levels of beta-amyloid [4]: reduced
- levels of synuclein [4]: reduced
- total Tau levels (Tau [pS396]; 10 mg/kg or less, 12-15 month old APP mice, after one week): does not alter
- level of phosphorylated Tau (pS396) (Tau [pS396]; brain homogenate, 10 mg/kg or less (10, 5, 2.5, 1.25 mg/kg) IP daily for 1 week, vs DMSO): reduces
- ratio of Tau (phosphorylated Tau (pS396)/total Tau) (Tau [pS396]; brain homogenate, 10 mg/kg or less IP daily for 1 week, vs DMSO): reduces
- reducing the ratio of Tau: lower dosages compared with higher dosages (Tau [pS396]; less than 2.5 mg/kg versus greater than 5.0 mg/kg): more effective
- phosphorylated mTOR levels (phosphorylated mTOR): without altering
